The values below come from patent US20130079345A1, “[…] ACTIVE DISUBSTITUTED TRIAZINE DERIVATIVES” (BAYER INTELLECTUAL PROPERTY GMBH, priority 2010, published 2013).

One assay has as its system B16F10 cells. As to the kind of experiment: Cell viability, B16F10 cells. It counts as cell-based, mouse. The protocol: (§1) HeLa- or MDAMB468-Cells or MATU ADR, H460, DU145, CACO-2 or B16F10 cells were maintained in RPMI 1640 or McCoy's 5A cell culture medium+glutamine (PAN Biotech GmbH, Aidenbach, Germany; order no. P04-22100; P04-05500) supplemented with 10% fetal calf serum “Gold” (PAA Laboratories GmbH, Pasching, Austria; order no. A15-151) and grown at 37° C., 5% CO2. For the cell viability assay, cells were seeded with a density of 400 (Hela cells, DSMZ Braunschweig order no. ACC57) or 800 (MDAMB468 cells, ATCC order no. HTB-132) per well in 25 μL in 384-well plates (Greiner Bio-One, Frickenhausen, Germany; order no. 781080). After overnight incubation at 37° C./5% CO2, 25 nL or 75 nL compound were added to each sample well by using BIOMEK FXP Laboratory Automation Workstation (Beckman Coulter, USA). Wells with cells and 0.1% or 0.3% DMSO in culture medium were used as positive controls, wells with cells and 10 μM staurosporine in culture medium were used as negative controls. The cells were incubated with the compounds for 72 h at 37° C./5% CO2. For measurement of cell viability […] Cell Titer Glo reagent (Promega, Madison, USA; order no. G7573), 1:2 diluted with cell culture medium, was added to each well. The 384well-plates were placed for 2 min on an orbital microplate shaker and incubated for further 10 min at room temperature to stabilize the luminescence signal. Luminescence was measured by Envision Plate Reader (Perkin Elmer, USA). EC50 values were calculated with the software Excel Fit (IDBS, Guildford, UK) from 3-fold dilution series comprising at least 8 concentrations in duplicates.
(§2) Cultivated tumour cells (NCl-H460, human non-small cell lung carcinoma cells, ATCC HTB-177; DU 145, hormone-independent human prostate carcinoma cells, ATCC HTB-81; HeLa-MaTu, human cervical carcinoma cells, EPO-GmbH, Berlin; HeLa-MaTu-ADR, multidrug-resistant human cervical carcinoma cells, EPO-GmbH, Berlin; HeLa human cervical tumour cells, ATCC CCL-2; Caco-2 human colorectal carcinoma, ATCC HTB-37; B16F10 mouse melanoma cells, ATCC CRL-6475) were plated at a density of 5,000 cells/well (DU145, HeLa-MaTu-ADR), 3,000 cells/well (NCl-H460, HeLa-MaTu, HeLa), 1,500 cells/well (Caco-2), or 1,000 cells/well (B16F10) in a 96-well multititer plate in 200 μL of their respective growth medium supplemented with 10% fetal calf serum. After 24 hours, the cells of one plate (zero-point plate) were stained with crystal violet (see below), while the medium of the other plates was replaced by fresh culture medium (200 μl), to which the test substances were added in various concentrations (0 μM as well as in the range of 0.001 to 10 μM; the final concentration of the solvent dimethyl sulfoxide was 0.5%). The cells were incubated in the presence of test substances for 4 days. Cell proliferation was determined by staining the cells with crystal violet: The cells were fixed by adding 20 μl/measuring point of an 11% glutaric aldehyde solution at room temperature for 15 minutes. After three washing cycles of the fixed cells with water, the plates were dried at room temperature. […] The extinction was determined by photometry at a wavelength of 595 nm. The change of cell number, in percent, was calculated by normalization of the measured values to the extinction values of the zero-point plate (equivalent to 0%) and the extinction of the untreated (0 μm) cells (equivalent to 100%). The IC50 values were determined by means of a 4 parameter fit using the company's own software.

The subject of another assay is H460 cells. As to the kind of experiment: Cell viability, H460 cells. The class given is cell-based, human. As for the experimental part: as §1, §2
The next assay concerns CACO-2 cells. In words: Cell viability, CACO-2 cells. It counts as cell-based, human. As for the experimental part:
as §1, §2

The test system of another assay is HeLa cells. In words: Cell viability, HeLa cells. The class given is cell-based. Conditions: Homo sapiens. As for the experimental part: as §1
Cultivated tumour cells (NCl-H460, human non-small cell lung carcinoma cells, ATCC HTB-177; DU 145, hormone-independent human prostate carcinoma cells, ATCC HTB-81; HeLa-MaTu, human cervical carcinoma cells, EPO-GmbH, Berlin; HeLa-MaTu-ADR, multidrug-resistant human cervical carcinoma cells, EPO-GmbH, Berlin; HeLa human cervical tumour cells, ATCC CCL-2; Caco-2 human colorectal carcinoma, ATCC HTB-37; B16F10 mouse melanoma cells, ATCC CRL-6475) were plated at a density of 5,000 cells/well (DU145, HeLa-MaTu-ADR), 3,000 cells/well (NCl-H460, HeLa-MaTu, HeLa), 1,500 cells/well (Caco-2), or 1,000 cells/well (B16F10) in a 96-well multititer plate in 200 μL of their respective growth medium supplemented with 10% fetal calf serum. After 24 hours, the cells of one plate (zero-point plate) were stained with crystal violet (see below), while the medium of the other plates was replaced by fresh culture medium (200 μl), to which the test substances were added in various concentrations (0 μM as well as in the range of 0.001 to 10 μM; the final concentration of the solvent dimethyl sulfoxide was 0.5%). The cells were incubated in the presence of test substances for 4 days. Cell proliferation was determined by staining the cells with crystal violet: The cells were fixed by adding 20 μl/measuring point of an 11% glutaric aldehyde solution at room temperature for 15 minutes. After three washing cycles of the fixed cells with water, the plates were dried at room temperature. The cells were stained by adding 100 μl/measuring point of a 0.1% crystal violet solution (pH 3.0). After three washing cycles of the stained cells with water, the plates were dried at room temperature. The dye was dissolved by adding 100 μl/measuring point of a 10% acetic acid solution. The extinction was determined by photometry at a wavelength of 595 nm. The change of cell number, in percent, was calculated by normalization of the measured values to the extinction values of the zero-point plate (equivalent to 0%) and the extinction of the untreated (0 μm) cells (equivalent to 100%). The IC50 values were determined by means of a 4 parameter fit using the company's own software.

Another assay has as its system MDAMB468 cells. In words: Cell viability assay, MDAMB468 cells. The class given is cell-based. The note with it: Homo sapiens, MDA-MB-468, 72 h, Cell Titer Glo. The protocol:
as §1

Another assay relates to DU145 cells. As to the kind of experiment: Cell viability, DU145 cells. The class given is cell-based, human. As for the experimental part:
as §1, §2

A further assay concerns MaTu/ADR cells. As to the kind of experiment: Cell viability, MaTu/ADR cells. The note with it: Homo sapiens. The class given is cell-based. The protocol: HeLa- or MDAMB468-Cells or MATU ADR, H460, DU145, CACO-2 or B16F10 cells were maintained in RPMI 1640 or McCoy's 5A cell culture medium+glutamine (PAN Biotech GmbH, Aidenbach, Germany; order no. P04-22100; P04-05500) supplemented with 10% fetal calf serum “Gold” (PAA Laboratories GmbH, Pasching, Austria; order no. A15-151) and grown at 37° C., 5% CO2. For the cell viability assay, cells were seeded with a density of 400 (Hela cells, DSMZ Braunschweig order no. ACC57) or 800 (MDAMB468 cells, ATCC order no. HTB-132) per well in 25 μL in 384-well plates (Greiner Bio-One, Frickenhausen, Germany; order no. 781080). After overnight incubation at 37° C./5% CO2, 25 nL or 75 nL compound were added to each sample well by using BIOMEK FXP Laboratory Automation Workstation (Beckman Coulter, USA). Wells with cells and 0.1% or 0.3% DMSO in culture medium were used as positive controls, wells with cells and 10 μM staurosporine in culture medium were used as negative controls. The cells were incubated with the compounds for 72 h at 37° C./5% CO2. For measurement of cell viability […] Cell Titer Glo reagent (Promega, Madison, USA; order no. G7573), 1:2 diluted with cell culture medium, was added to each well. The 384well-plates were placed for 2 min on an orbital microplate shaker and incubated for further 10 min at room temperature to stabilize the luminescence signal. Luminescence was measured by Envision Plate Reader (Perkin Elmer, USA). […]
as §2, with “After 24 hours, the cells of one plate (zero-point plate) were stained with crystal violet (see below), while the medium of the other plates was replaced by fresh culture medium (200 μl), to which the test substances were added in various concentrations (0 μM as well as in the range of 0.001 to 10 μM; the final concentration of the solvent dimethyl sulfoxide was 0.5%). The cells were incubated in the presence of test substances for 4 days.” left out, “minutes.” for “minutes. After three washing cycles of the fixed cells with water, the plates were dried at room temperature.”

SMILES strings stand for the structures. Counter-ions that a name gives are not always drawn.

What is called IC50 is the concentration at which inhibition is half-maximal. As for `COc1ccccc1-c1ncnc(Nc2cccc(CS(N)(=O)=O)c2)n1` [B1′, 3-[(4-(2-Methoxyphenyl)-1,3,5-triazin-2-yl)amino]benzenemethanesulfonamide trifluoroacetic acid salt], the IC50 with B16F10 cells (Mus musculus, B16-F10) is 4400 nM; in the assay on H460 cells (Homo sapiens, NCI-H460), 3500 nM; in the assay on CACO-2 cells (Homo sapiens, Caco-2) it was 4300 nM; in the assay on HeLa cells it was 3200 nM; with MDAMB468 cells it was 2990 nM; with DU145 cells (Homo sapiens, DU-145), 3800 nM. For the same compound, in the assay on MaTu/ADR cells, 3200 nM corresponded to half-maximal inhibition (IC50).

As to `COc1cc(F)ccc1-c1ncnc(Nc2cccc(CS(N)(=O)=O)c2)n1` [B2′, 1-(3-{[4-(4-fluoro-2-methoxyphenyl)-1,3,5-triazin-2-yl]amino}phenyl)methanesulfonamide hydrochloride], the IC50 with B16F10 cells (hydrochloride) was 1100 nM; with H460 cells (hydrochloride), 1500 nM; in the assay on CACO-2 cells (hydrochloride) it was 1500 nM; in the assay with DU145 cells (hydrochloride), 1000 nM.

Turning to `NS(=O)(=O)Cc1cccc(Nc2ncnc(-c3ccccc3OCc3ccccc3)n2)c1` [B13′, 3-[(4-(2-Benzyloxyphenyl)-1,3,5-triazin-2-yl)amino]benzenemethanesulfonamide trifluoroacetic acid salt], the IC50 in the assay with B16F10 cells (Mus musculus, B16-F10) turned out to be 320 nM; with H460 cells (Homo sapiens, NCI-H460), 320 nM; in the assay on CACO-2 cells (Homo sapiens, Caco-2), 370 nM; in the assay with HeLa cells, 310 nM; with MDAMB468 cells it was 160 nM; with DU145 cells (Homo sapiens, DU-145), 330 nM. The IC50 in the assay with MaTu/ADR cells is 290 nM.

For `COc1ccccc1-c1ncnc(Nc2cccc(S(N)(=O)=O)c2)n1` [C1′, 3-[(4-(2-Methoxyphenyl)-1,3,5-triazin-2-yl)amino]benzenesulfonamide trifluoroacetic acid salt], the IC50 with B16F10 cells (Mus musculus, B16-F10) came out at 1000 nM; in the assay with H460 cells (Homo sapiens, NCI-H460), 1100 nM; with CACO-2 cells (Homo sapiens, Caco-2), 1100 nM; in the assay with HeLa cells it was 1000 nM; in the assay with MDAMB468 cells, 800 nM; in the assay with DU145 cells (Homo sapiens, DU-145), 1000 nM. Also, in the assay with MaTu/ADR cells, the IC50 came out at 760 nM.

Regarding `COc1cc(F)ccc1-c1ncnc(Nc2cccc(CS(N)(=O)=O)c2)n1` [Compound B2, 3-[(4-(4-Fluoro-2-methoxyphenyl)-1,3,5-triazin-2-yl)amino]benzenemethanesulfonamide], the IC50 amounted to 1600 nM with B16F10 cells (Mus musculus, B16-F10); 1300 nM with H460 cells (Homo sapiens, NCI-H460); 1600 nM in the assay with CACO-2 cells (Homo sapiens, Caco-2); 1000 nM with HeLa cells; 420 nM in the assay on MDAMB468 cells; 1500 nM in the assay on DU145 cells (Homo sapiens, DU-145). In addition, inhibition in the assay with MaTu/ADR cells was half-maximal at 1000 nM (IC50).

`COc1ccccc1-c1ncnc(Nc2cccc(CCS(N)(=O)=O)c2)n1` [Compound D1, 2-[3-((4-(2-Methoxyphenyl)-1,3,5-triazin-2-yl)amino)phenyl]ethanesulfonamide] came in with an IC50 in the assay on MDAMB468 cells of 4610 nM. This counts as single-digit micromolar.

`COc1ccccc1-c1ncnc(Nc2cccc([N+](=O)[O-])c2)n1` [Compound H1, 4-(2-Methoxyphenyl)-N-(3-nitrophenyl)-1,3,5-triazine-2-amine] displayed an IC50 in the assay with MDAMB468 cells of 830 nM.

For `CCCS(=O)(=O)Nc1cccc(Nc2ncnc(-c3ccccc3OC)n2)c1` [Compound L1, N-[3-((4-(2-Methoxyphenyl)-1,3,5-triazin-2-yl)amino)phenyl]-propanesulfonamide], the IC50 in the assay on MDAMB468 cells was determined as 4500 nM. This IC50 is about 5.4-fold higher than that of the compound before.

With `COc1ccccc1-c1ncnc(Nc2ccccc2)n1` [Compound P1, 4-(2-Methoxyphenyl)-N-phenyl-1,3,5-triazine-2-amine], 13300 nM corresponded to half-maximal inhibition in the assay with MDAMB468 cells (IC50).

In the assay on HeLa cells, `CC(C)Oc1cc(F)ccc1-c1ncnc(Nc2cccc(CS(N)(=O)=O)c2)n1` [Compound U2, 1-[3-({4-[4-fluoro-2-(propan-2-yloxy)phenyl]-1,3,5-triazin-2-yl}amino)phenyl]methanesulfonamide] displayed an IC50 of 2700 nM.

On to `N#Cc1cc(F)ccc1-c1ncnc(Nc2cccc(CS(N)(=O)=O)c2)n1` [Compound U3, 1-(3-{[4-(2-cyano-4-fluorophenyl)-1,3,5-triazin-2-yl]amino}phenyl)methanesulfonamide], for which, in the assay with HeLa cells, the IC50 was 10000 nM.

`COc1cc(F)c(F)cc1-c1ncnc(Nc2cccc(CS(N)(=O)=O)c2)n1` [Compound U7, 1-(3-{[4-(4,5-difluoro-2-methoxyphenyl)-1,3,5-triazin-2-yl]amino}phenyl)methanesulfonamide] showed an IC50 in the assay with HeLa cells of 1200 nM.

For `COc1cc(F)ccc1-c1ncnc(Nc2ccc(S(C)(=O)=O)nc2)n1` [Compound U8, 4-(4-fluoro-2-methoxyphenyl)-N-[6-(methylsulfonyl)pyridin-3-yl]-1,3,5-triazin-2-amine], in the assay on HeLa cells, the IC50 was determined as 4200 nM.

For the compound `CNS(=O)(=O)Cc1cccc(Nc2cc(-c3ccccc3OC)ncn2)c1` [Ref2, C-{3-[6-(2-Methoxy-phenyl)-pyrimidin-4-ylamino]-phenyl}-N-methyl methanesulfonamide, reference compound], 4600 nM corresponded to half-maximal inhibition in the assay on HeLa cells (IC50).

`COc1ccccc1-c1cc(Nc2cccc(CS(=O)(=O)N(C)C)c2)ncn1` [Ref4, C-{3-[6-(2-Methoxy-phenyl)-pyrimidin-4-ylamino]-phenyl}-N,N-dimethylmethanesulfonamide, reference compound] displayed an IC50 in the assay with HeLa cells of 6100 nM.
